Test results taken from patent publication US11135207B2, “Inhibitors of dihydroceramide desaturase for treating disease” (Centaurus Therapeutics, priority 2016, dated 2021).
Values joined by “and” are separate entries in the source; they are usually repeats but may differ in a detail not shown here. Equal values may be shown once. Read-outs that look alike come from different tables or passages of the source.

Target: Des1 (Homo sapiens (Human), UniProt O15121)
Assay: Jurkat T cell measurement of conversion of dihydroceramide to ceramide
Assay type: cell-based
Conditions: for inhibition at 10 µM: read-out: Des1 % Inhib (10 μM); for IC50: read-out: Des1 IC50; for inhibition at 1 µM: read-out: Des1 % Inhib (1 μM)
Description: Jurkat T Cell Measurement of Conversion of Dihydroceramide to Ceramide
Jurkat clone E6-1 cells were grown and then seeded at 10^6 cells/mL in a 96-well plate (400 μL in each well. The cells were administered 100 μL of cell culture media containing 50-μM NBD-C6-dihydroceramide (Des1 substrate), affording a final concentration of substrate of 10 μM. The cells were incubated with substrate at 4° C. for 30 minutes. Following the incubation at 4° C., the cell suspension was centrifuged at 1200 rpm for 3 minutes, and the cell pellet is resuspended in 400 μL of fresh media containing various concentrations of either fenretinide (known Des1 inhibitor control compound) or test article. The final concentrations of control compound and test compounds were tested in a range from 0-10 μM. The cells and compounds were incubated at 37° C. for 3 hours. Following the 3-hour incubation, the plate was centrifuged at 2500 g for 3 minutes at 4° C., followed by collection and transfer of 200 μL of the supernatant to a new 96-well plate with 300 μL of methanol an containing appropriate internal standards for liquid chromatography/tandem mass spectroscopy (LC/MS/MS) analysis (internal standard: 500 nM labetalol and 100 nM alprazolam). The samples were vortexed for 2 minutes followed by centrifugation at 3,220 g for 20 minutes. Following centrifugation, 200 μL of the supernatant was transferred to a new 96-well plate for LC-MS/MS analysis to determine the amount of NBD-C6-ceramide (Des1 product) produced. The assay was typically performed in duplicate. A reduction of at least 30% compared to vehicle control (0 μM test article) is indicative of an active compound, and a reduction of 75% compared to vehicle control is preferred.

[1] = 10 μM compound, Jurkat clone E6-1 cells, NBD-C6-dihydroceramide substrate
[2] = Jurkat clone E6-1 cells, NBD-C6-dihydroceramide substrate
[3] = 1 μM compound, Jurkat clone E6-1 cells

Sequence of Des1 (O15121 whole entry): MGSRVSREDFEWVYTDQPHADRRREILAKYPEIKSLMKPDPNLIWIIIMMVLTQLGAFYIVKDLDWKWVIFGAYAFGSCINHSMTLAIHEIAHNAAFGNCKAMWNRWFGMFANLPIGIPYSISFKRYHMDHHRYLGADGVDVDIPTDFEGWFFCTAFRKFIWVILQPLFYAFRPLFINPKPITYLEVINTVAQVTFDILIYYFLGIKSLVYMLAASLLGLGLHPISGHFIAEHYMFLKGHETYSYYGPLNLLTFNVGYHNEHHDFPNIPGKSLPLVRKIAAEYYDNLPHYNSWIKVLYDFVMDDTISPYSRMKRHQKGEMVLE

Row | Compound | inhibition at 10 µM [1] [%] | IC50 [2] | inhibition at 1 µM [3] [%] | further results
1 | O=C(Nc1ccc(O)cc1)[C@@H]1C[C@H]1c1ccccc1 (relative stereo) [Example 6, (trans)-N-(4-hydroxyphenyl)-2-phenyl-cyclopropane-carboxamide] | 76 | 590 nM | – | –
2 | O=C(Nc1ccc(O)cc1)c1ccc2ccccc2c1 [Example 2, N-(4-hydroxy-phenyl)-2-naphthamide] | 78 | 840 nM | – | –
3 | C/C(=C\C(=O)Nc1ccc(O)cc1)c1ccccc1 [Example 3, (E)-N-(4-hydroxy-phenyl)-3-phenylbut-2-enamide] | 49 | 4460 nM | – | –
4 | O=C(/C=C/c1ccccc1)Nc1ccc(O)cc1 [Example 4, N-(4-hydroxy-phenyl)-cinnamide] | 85 | 440 nM | – | –
5 | O=C(Nc1ccc(O)cc1)c1ccc(-c2ccccc2)cc1 [Example 5, N-(4-hydroxy-phcnyl)-[1,1′-biphenyl]-4-carboxamide] | 88 | 50 nM | – | –
6 | O=C(Nc1ccc(O)cn1)c1ccc2ccccc2c1 [Example 7, N-(5-hydroxy-pyridin-2-yl)-2-naphth-amide] | – | 180 nM | 79.8 | –
7 | O=C(/C=C/c1ccccc1)Nc1ccc(O)cn1 [Example 8, N-(5-hydroxy-pyridin-2-yl)-cinnamide] | – | 60 nM | 85.9 | –
8 | O=C(Nc1ccc(O)cn1)c1ccc(-c2ccccc2)cc1 [Example 9, N-(5-hydroxy-pyridin-2-yl)-(1,1′-biphenyl)-4-carboxamide] | – | 10 nM and 26 nM | 93.3 | –
9 | O=C(Nc1ccc(O)cn1)[C@@H]1C[C@H]1c1ccccc1 [Example 10, (trans)-N-(5-hydroxy-pyridin-2-yl)-2-phenyl-cyclopropane-carboxamide] | – | 230 nM | 67.2 | –
10 | CC(C)=CC(=O)Nc1ccc(O)cc1 [Example 11, N-(4-hydroxy-phenyl)-3-methyl-2-butenamide] | 20 | > 10000 nM | – | –
11 | O=C(Nc1ccc(O)cc1)c1cccc2ccccc12 [Example 13, N-(4-hydroxy-phenyl)-1-napthamide] | 38 | 8200 nM | – | –
12 | O=C(Nc1ccc(O)cc1)c1ccc2[nH]ncc2c1 [Example 14, N-(4-hydroxy-phenyl)-1H-indazole-5-carboxamide] | 14.8 | > 10000 nM | – | –
13 | O=C(Nc1ccc(O)cc1)c1ccc(C2CCCCC2)cc1 [Example 15, N-(4-hydroxy-phenyl)-4-cyclohexyl-benzamide] | – | 90 nM | – | inhibition at 10 µM (Jurkat): 87%
14 | O=C(Nc1ccc(O)cc1)c1ccc(-c2ccc(O)cc2)cc1 [Example 16, N-(4-hydroxy-phenyl)-4′-hydroxy-biphenyl-4-carboxamide] | 54 | – | – | –
15 | O=C(Nc1ccc(O)cn1)c1cccc2ccccc12 [Example 19, N-(5-hydroxy-pyridin-2-yl)-1-napthamide] | – | – | 31 | –
16 | O=C(Nc1ccc(O)cn1)c1ccc(C2CCCCC2)cc1 [Example 20, N-(5-hydroxy-pyridin-2-yl)-4-cyclohexyl-benzamide] | – | 4 nM | – | inhibition at 1 µM (Jurkat): 95.9%
17 | O=C(Nc1ccc(O)cn1)c1ccc(-c2ccc(O)cc2)cc1 [Example 21, N-(5-hydroxy-pyridin-2-yl)-4′-hydroxy-biphenyl-4-carboxamide] | – | – | – | inhibition at 0.5 µM (0.5 μM compound, Jurkat clone E6-1 cells, read-out: Des1 % Inhib (0.5 μM)): 62.8%
18 | COc1ccc(-c2ccc(C(=O)Nc3ccc(O)cn3)cc2)cc1 [Example 22, N-(5-hydroxy-pyridin-2-yl)-4′-methoxy-biphenyl-4-carboxamide] | – | 14 nM | 95.4 | –
19 | N#Cc1ccc(-c2ccc(C(=O)Nc3ccc(O)cn3)cc2)cc1 [Example 23, N-(5-hydroxy-pyridin-2-yl)-4′-cyano-biphenyl-4-carboxamide] | – | 5 nM | 96.3 | –
20 | O=C(Nc1ccc(O)cn1)c1ccc(-c2ccc(Cl)cc2)cc1 [Example 24, N-(5-hydroxy-pyridin-2-yl)-4′-chloro-biphenyl-4-carboxamide] | – | 3 nM | 96.1 | –
